Laboratory results taken from publication PMC10044120, “Potent and selective covalent inhibition of the papain-like protease from SARS-CoV-2” (Nature Communications, 2023).
Like-named read-outs stand apart in the source and are kept apart here.

Columns and labels:
[1] = molecular target: T1, USP30 (Homo sapiens, UniProt Q70CQ3); test: biochemical; settings: USP30 10 nM, Ub-rhodamine110
T1 construct: purchased LifeSensors, Inc. (Malvern, PA)

[2] = system: SARS-CoV-2 isolate USA-WA1/2020; test: microbe, parasite or virus in culture; settings: duplicate wells
[3] = molecular target: T2, SARS-CoV-2 PLpro (Severe acute respiratory syndrome coronavirus 2, UniProt P0DTD1); test: biochemical; settings: PLpro 10 nM, ISG15-CHOP2
[4] = in vitro; settings: African green monkey, cytotoxicity, %cell viability
[5] = molecular target: PLpro from SARS-CoV-2 (Severe acute respiratory syndrome coronavirus 2, UniProt P0DTD1); test: biochemical; type: biochemical
[6] = molecular target: T3, UCHL1 (Homo sapiens, UniProt P09936); test: biochemical; settings: UCHL1 10 nM, Ub-rhodamine110
T3 construct: purchased LifeSensors, Inc. (Malvern, PA)

[7] = molecular target: T4, USP4 (Homo sapiens, UniProt Q13107); test: DUB selectivity assay, USP4 (Ub-rhodamine110); type: biochemical; settings: USP4 10 nM, Ub-rhodamine110; read-out: IC50
T4 construct: purchased LifeSensors, Inc. (Malvern, PA)
T4 sequence (Q13107 1-963): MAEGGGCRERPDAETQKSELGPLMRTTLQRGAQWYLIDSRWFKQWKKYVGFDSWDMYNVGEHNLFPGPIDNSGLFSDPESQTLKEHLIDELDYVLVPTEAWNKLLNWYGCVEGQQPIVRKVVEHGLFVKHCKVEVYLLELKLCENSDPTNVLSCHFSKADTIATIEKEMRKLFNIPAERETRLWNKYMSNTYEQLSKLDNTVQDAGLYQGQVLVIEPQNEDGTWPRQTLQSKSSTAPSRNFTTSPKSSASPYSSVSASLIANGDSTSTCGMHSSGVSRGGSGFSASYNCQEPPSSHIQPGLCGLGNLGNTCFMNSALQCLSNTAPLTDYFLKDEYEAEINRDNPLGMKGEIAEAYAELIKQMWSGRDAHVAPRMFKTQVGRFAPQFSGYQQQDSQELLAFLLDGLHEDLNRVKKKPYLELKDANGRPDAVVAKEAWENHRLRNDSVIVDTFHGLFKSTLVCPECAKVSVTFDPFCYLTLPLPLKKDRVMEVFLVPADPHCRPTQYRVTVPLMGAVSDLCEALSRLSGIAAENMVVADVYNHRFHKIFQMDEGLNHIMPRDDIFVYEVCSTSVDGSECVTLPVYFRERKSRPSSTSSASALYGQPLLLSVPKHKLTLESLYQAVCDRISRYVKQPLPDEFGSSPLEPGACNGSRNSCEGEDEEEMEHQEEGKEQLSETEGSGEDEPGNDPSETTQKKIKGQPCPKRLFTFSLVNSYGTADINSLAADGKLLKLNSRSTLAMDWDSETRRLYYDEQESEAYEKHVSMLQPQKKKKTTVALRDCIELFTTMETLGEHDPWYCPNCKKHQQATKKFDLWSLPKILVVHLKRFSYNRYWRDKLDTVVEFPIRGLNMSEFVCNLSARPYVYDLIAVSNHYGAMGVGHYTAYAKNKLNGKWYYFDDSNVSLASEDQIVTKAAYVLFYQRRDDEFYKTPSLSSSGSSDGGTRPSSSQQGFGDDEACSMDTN

[8] = molecular target: T5, USP2 (Homo sapiens, UniProt O75604); test: biochemical; settings: USP2 10 nM, Ub-rhodamine110
T5 construct: USP2c, USP4, USP7, USP8c, USP15, USP30WT, and UCH-L1; purchased LifeSensors, Inc. (Malvern, PA)

[9] = molecular target: T6, USP7 (Homo sapiens, UniProt Q93009); test: biochemical; settings: USP7 5 nM, Ub-CHOP2
T6 construct: purchased LifeSensors, Inc. (Malvern, PA)

[10] = molecular target: T7, USP8 (Homo sapiens, UniProt P40818); test: biochemical; settings: USP8 10 nM, Ub-rhodamine110
T7 construct: USP2c, USP4, USP7, USP8c, USP15, USP30WT, and UCH-L1; purchased LifeSensors, Inc. (Malvern, PA)

[11] = system: Vero E6 cells; settings: African green monkey, 48 h
[12] = molecular target: T2, SARS-CoV-2 PLpro; test: biochemical; settings: PLpro 50 nM, Ub-rhodamine110
[13] = system: viral replication in Vero E6 cells; settings: viral replication in Vero E6 cells; cited from earlier work
[14] = system: SARS-CoV-2 isolate USA-WA1/2020; settings: read-out: cytopathic effect, % cell viability, duplicate wells
[15] = system: SARS-CoV PLpro; settings: cited from earlier work
[16] = molecular target: T8, USP15 (Homo sapiens, UniProt Q9Y4E8); test: DUB selectivity assay, USP15 (Ub-rhodamine110); type: biochemical; settings: USP15 1 nM, Ub-rhodamine110; read-out: IC50
T8 construct: purchased LifeSensors, Inc. (Malvern, PA)
T8 sequence (Q9Y4E8 1-981): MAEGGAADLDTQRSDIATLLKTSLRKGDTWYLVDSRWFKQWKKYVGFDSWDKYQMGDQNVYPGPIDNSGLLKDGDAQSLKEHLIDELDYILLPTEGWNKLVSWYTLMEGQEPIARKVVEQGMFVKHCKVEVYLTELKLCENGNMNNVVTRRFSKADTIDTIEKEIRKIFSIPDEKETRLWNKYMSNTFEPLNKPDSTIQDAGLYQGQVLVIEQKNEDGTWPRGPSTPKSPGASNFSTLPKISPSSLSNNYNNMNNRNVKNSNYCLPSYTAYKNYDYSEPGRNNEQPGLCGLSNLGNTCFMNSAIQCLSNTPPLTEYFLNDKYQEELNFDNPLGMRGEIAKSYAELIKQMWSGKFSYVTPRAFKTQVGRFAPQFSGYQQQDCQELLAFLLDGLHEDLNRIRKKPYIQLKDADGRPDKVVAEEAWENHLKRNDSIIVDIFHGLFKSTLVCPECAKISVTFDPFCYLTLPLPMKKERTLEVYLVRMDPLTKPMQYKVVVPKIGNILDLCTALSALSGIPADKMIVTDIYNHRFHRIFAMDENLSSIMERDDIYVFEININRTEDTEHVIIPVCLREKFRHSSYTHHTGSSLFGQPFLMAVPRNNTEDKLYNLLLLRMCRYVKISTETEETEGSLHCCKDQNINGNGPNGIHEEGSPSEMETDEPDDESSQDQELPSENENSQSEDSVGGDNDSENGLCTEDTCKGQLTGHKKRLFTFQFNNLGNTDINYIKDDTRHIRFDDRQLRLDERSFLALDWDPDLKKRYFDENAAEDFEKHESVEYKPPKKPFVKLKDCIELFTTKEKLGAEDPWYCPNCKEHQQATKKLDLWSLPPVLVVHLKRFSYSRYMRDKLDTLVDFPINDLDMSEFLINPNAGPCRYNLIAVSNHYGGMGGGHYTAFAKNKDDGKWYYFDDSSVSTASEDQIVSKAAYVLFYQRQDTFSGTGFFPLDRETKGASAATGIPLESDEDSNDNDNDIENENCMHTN

T7 sequence (P40818 777-1109): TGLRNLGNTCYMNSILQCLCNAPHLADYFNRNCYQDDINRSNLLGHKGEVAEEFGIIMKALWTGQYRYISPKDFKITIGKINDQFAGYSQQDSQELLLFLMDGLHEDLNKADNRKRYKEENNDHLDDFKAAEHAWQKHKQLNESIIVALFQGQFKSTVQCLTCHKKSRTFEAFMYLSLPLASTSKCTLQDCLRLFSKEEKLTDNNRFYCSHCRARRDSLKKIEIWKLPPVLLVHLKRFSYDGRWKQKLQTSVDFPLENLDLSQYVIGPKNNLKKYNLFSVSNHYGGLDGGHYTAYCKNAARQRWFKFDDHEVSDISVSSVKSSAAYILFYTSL
T3 sequence (P09936 whole entry): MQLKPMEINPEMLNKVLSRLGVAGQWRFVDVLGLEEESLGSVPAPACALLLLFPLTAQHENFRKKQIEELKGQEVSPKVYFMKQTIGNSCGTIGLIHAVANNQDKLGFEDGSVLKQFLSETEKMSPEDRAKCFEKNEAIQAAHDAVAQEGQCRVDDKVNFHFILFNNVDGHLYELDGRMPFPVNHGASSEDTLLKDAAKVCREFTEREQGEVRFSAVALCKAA
T1 sequence (Q70CQ3 whole entry): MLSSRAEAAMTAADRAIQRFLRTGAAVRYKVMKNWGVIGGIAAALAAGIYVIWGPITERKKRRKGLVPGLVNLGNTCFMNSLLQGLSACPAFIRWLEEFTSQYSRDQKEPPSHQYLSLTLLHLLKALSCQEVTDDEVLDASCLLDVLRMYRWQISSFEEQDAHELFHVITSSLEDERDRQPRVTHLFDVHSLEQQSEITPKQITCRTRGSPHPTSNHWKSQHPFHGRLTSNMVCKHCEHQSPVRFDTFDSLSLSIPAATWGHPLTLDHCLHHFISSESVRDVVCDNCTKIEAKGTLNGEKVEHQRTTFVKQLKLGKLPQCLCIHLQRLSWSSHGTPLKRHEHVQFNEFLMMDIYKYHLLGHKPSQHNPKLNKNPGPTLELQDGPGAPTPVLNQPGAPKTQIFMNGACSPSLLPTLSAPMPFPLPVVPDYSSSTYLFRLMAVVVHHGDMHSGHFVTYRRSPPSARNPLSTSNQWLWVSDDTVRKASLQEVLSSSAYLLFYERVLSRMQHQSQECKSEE
T5 sequence (O75604 267-599): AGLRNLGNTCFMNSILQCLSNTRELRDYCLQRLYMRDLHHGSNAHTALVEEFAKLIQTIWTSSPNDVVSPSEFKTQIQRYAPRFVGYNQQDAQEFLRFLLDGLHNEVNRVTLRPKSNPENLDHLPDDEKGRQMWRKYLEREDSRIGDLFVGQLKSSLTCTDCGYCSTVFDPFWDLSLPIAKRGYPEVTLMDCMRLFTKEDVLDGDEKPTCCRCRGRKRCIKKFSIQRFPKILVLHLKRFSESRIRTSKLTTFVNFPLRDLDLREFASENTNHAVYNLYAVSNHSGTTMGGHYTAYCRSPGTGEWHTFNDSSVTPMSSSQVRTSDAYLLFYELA
T6 sequence (Q93009 whole entry): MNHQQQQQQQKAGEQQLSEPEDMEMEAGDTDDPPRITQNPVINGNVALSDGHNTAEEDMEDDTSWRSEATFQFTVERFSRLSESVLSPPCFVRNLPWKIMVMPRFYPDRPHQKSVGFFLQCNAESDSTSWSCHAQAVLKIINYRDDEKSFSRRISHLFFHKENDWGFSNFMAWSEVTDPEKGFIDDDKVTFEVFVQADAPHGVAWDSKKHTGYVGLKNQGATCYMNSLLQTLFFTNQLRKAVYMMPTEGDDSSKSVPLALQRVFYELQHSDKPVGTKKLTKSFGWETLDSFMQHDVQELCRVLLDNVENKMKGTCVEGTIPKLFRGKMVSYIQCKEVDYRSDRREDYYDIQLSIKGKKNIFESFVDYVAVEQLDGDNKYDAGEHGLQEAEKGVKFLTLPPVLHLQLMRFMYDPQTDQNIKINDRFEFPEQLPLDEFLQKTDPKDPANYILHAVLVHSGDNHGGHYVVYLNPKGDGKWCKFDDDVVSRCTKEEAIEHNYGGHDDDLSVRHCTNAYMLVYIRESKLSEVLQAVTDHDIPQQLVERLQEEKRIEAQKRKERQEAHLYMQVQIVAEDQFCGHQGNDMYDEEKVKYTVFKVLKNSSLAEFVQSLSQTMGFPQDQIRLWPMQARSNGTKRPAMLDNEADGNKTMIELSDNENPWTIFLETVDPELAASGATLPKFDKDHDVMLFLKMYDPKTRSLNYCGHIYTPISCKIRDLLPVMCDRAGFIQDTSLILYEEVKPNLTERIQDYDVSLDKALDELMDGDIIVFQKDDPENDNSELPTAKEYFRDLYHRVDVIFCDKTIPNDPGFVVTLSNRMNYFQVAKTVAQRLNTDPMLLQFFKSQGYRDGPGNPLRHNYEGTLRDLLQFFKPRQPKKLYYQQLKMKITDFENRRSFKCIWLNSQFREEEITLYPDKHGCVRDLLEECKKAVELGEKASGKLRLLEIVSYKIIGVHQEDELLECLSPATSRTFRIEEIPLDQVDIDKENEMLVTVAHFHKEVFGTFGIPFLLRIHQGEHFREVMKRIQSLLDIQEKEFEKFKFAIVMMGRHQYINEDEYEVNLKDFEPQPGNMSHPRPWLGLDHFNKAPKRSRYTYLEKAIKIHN

CC(=O)Nc1ccc(C)c(C(=O)N[C@H](C)c2cccc3ccccc23)c1 [Compound 15, (R)-5-acetamido-2-methyl-N-(1-(naphthalen-1-yl)ethyl)benzamide]
IC50 [1]: > 30 µM
inhibition at 8.33 µM ([2]; Severe acute respiratory syndrome coronavirus 2, Vero C1008, read-out: cytopathic effect, % cell viability, [inhibitor] 8.33 uM): 5.51%
inhibition at 16.67 µM ([2]; Severe acute respiratory syndrome coronavirus 2, Vero C1008, read-out: cytopathic effect, % cell viability, [inhibitor] 16.67 uM): 8.63%
Hill slope [3]: 0.969
IC50 [3]: > 30 µM
viability at 48 h, 2.08 µM [4]: 85.5%
viability at 48 h, 8.33 µM [4]: 85.8%
viability at 48 h, 16.67 µM [4]: 81.3%
viability at 48 h, 33.33 µM [4]: 64.9%
remaining activity at 0.02 µM ([5]; 0.5 h, inhibitor 0.02 uM): 115%
remaining activity at 0.06 µM ([5]; 0.5 h, inhibitor 0.06 uM): 104%
remaining activity at 0.2 µM ([5]; 0.5 h, inhibitor 0.20 uM): 110%
remaining activity at 2.01 µM ([5]; 0.5 h, inhibitor 2.01 uM): 61.8%
remaining activity at 6.34 µM ([5]; 0.5 h, inhibitor 6.34 uM): 56.9%
remaining activity at 20 µM ([5]; 0.5 h, inhibitor 20.00 uM): 26.7%
IC50 ([5]; after 30-min incubation, purified PLpro, Z-RLRGG-AMC substrate): 6.2 µM
IC50 [6]: > 30 µM
IC50 [7]: > 30 µM
IC50 [8]: > 30 µM
IC50 [9]: > 30 µM
IC50 [10]: > 30 µM
cytotoxicity, %cell viability ([11]; 2.08 µM): 75.89%
cytotoxicity, %cell viability ([11]; 8.33 µM): 83.23%
cytotoxicity, %cell viability ([11]; 16.67 µM): 80.07%
cytotoxicity, %cell viability ([11]; 33.33 µM): 59.25%
Hill slope [12]: 0.376
IC50 [12]: > 30 µM
EC50 [13]: 13.1 µM
inhibition ([14]; [inhibitor] 8.33 uM, 8.33 µM): 3.31%
inhibition ([14]; [inhibitor] 16.67 uM, 16.67 µM): 6.9%
IC50 [15]: 2.6 µM
IC50 [16]: > 30 µM
